Columns and labels:
[1] = system: HCVcc, genotype 2a, JFH-1 strain; experiment: TCID50 determination: re-infection of naive Huh 7.5.1 cells with medium from the HCVcc assay; format: cell-based, HCV; settings: medium with extracellular virus used to re-infect naive Huh 7.5.1 cells
Procedure: FIG. 4B illustrates the TCID50 of naïve Huh 7.5.1 cells that were infected using medium collected in the HCVcc assay run using 0.32, 1.0, and 3.2 μM concentrations of NCGC00345021 and 0.032, 0.10 and 0.32 μM concentrations of Cyclosporin A.
(§1) Cell Culture-derived HCV (HCVcc, genotype 2a, JFH-1 strain) system provides direct evidence of anti-HCV activity of the compounds. Determination of both extracellular and intracellular HCV levels can help evaluate whether the compounds interfere early-stage or late-stage infection. […] Cyclosporin A was tested in parallel to serve as control compound targeting early-stage HCV infection. […] At the highest concentration, cyclosporin A caused approximately 4-log fold reduction in intracellular RNA copies, while the extracellular level reduced less than […]. On the contrary, NCGC00345021 led to only about 1-log fold decrease in intracellular RNA copies when causing 3-log fold reduction in extracellular RNA level. Clearly, when the concentration increased, NCGC00345021 led to a more dramatic reduction in extracellular RNA copies.

HCV-Luc = HCV-Luc infection assay; format: cell-based; settings: Hepatitis C virus; at 10 nM
[2] = system: HCVcc, genotype 2a, JFH-1 strain; experiment: HCVcc assay, extracellular and intracellular viral RNA by quantitative real-time PCR; format: cell-based, HCV; settings: at the highest concentration
Procedure: Huh 7.5.1 cells were seeded in 12-well plates (10^5 cells/well) and cultured overnight. HCVcc was used to infect the cells with the treatment of compounds at 10 μM. Virus-containing medium was removed after 4 h incubation and compound treatment was added back followed by incubation for additional 48 h. Intracellular and extracellular viral RNA levels were evaluated by quantitative real-time PCR. The results are illustrated in FIG. 1 and are the means of three replicates ±SEM. […] Cyclosporin A at 10 μM was used as positive control.
Cell Culture-derived HCV (HCVcc, genotype 2a, JFH-1 strain) system provides direct evidence of anti-HCV activity of the compounds.
as §1

GT 2a replicon RNA = experiment: Transient replicon assay, GT 2a; format: cell-based, HCV
HCVpp GT 1a = format: cell-based, HCV
Dengue RVP = experiment: Dengue Reporter Virus Particles (RVPs) reproducibility assay; settings: increasing concentrations; Huh 7.5.1 cells; luciferase 48 h
Procedure: Huh 7.5.1 cells seeded in 96-well plates (10^4 cells/well) were cultured overnight. […] The results are means of three replicates ±SEM.

HCV replicon GT 2a = format: cell-based
HCVsc, genotype 2a = format: cell-based, HCV
VSVpp = format: cell-based

COc1ccc(CN2CCC(N(CCc3ccccc3)Cc3ccccc3)CC2)c(OC)c1 [NCGC00345021, N-Benzyl-1-(2,4-dimethoxybenzyl)-N-phenethylpiperidin-4-amine] was tested, and the TCID50 values [1] was “dose-dependent reduction”, the inhibition at 0.01 µM (HCV-Luc) was > 90% and the “reduction in extracellular RNA level” value [2] was 3 log fold. For the same molecule, the “reduction in intracellular RNA copies” value [2] was “about 1 log fold”, the “inhibition of viral replication, transient GT 2a replicon” value (GT 2a replicon RNA; 10 μM, Huh 7.5.1 cells) was “modest inhibition” and the “% RLU at 10 μM, HCV subgenomic replicon Transient GT 2a” value (GT 2a replicon RNA; mean of five replicates ±SEM) was 139 ± 16.4 % RLU. For the same molecule, the “inhibitory activity in HCVpp GT 1a” value (HCVpp GT 1a; 10 μM, Huh 7.5.1 cells) was “low inhibitory activity”, the “% RLU at 10 μM, HCVpp GT 1a” value (HCVpp GT 1a; mean of five replicates ±SEM) was 66.3 ± 9.49 % RLU and the “Dengue RVP reproducibility” value (Dengue RVP) was “dose-dependent inhibition”. For the same molecule, the “inhibitory effect in replicon GT 2a cell line” value (HCV replicon GT 2a; 10 μM, luciferase 48 h) was “did not show any inhibitory effect”, the “% RLU at 10 μM, HCV subgenomic replicon GT 2a cell line” value (HCV replicon GT 2a; mean of five replicates ±SEM) was 54.4 ± 2.96 % RLU and the “inhibitory activity in the HCVsc infection level” value (HCVsc, genotype 2a; 10 μM, Huh 7.5.1 cells, luciferase 48 h) was “no significant inhibitory activities”. For the same molecule, the “% RLU at 10 μM, HCVsc” value (HCVsc, genotype 2a; mean of five replicates ±SEM) was 104 ± 9.95 % RLU, the “% RLU at 10 μM, VSVpp” value (VSVpp) was 103 ± 6.73 % RLU and the “inhibition on VSVpp” value (VSVpp; 10 μM) was “no inhibition”.
